In ChEMBL document CHEMBL4483862, “Open-source discovery of chemical leads for next-generation chemoprotective antimalarials” (2018) one finds IC50 and IC90 data, which are given here for 40 molecules.

The assay relates to Plasmodium berghei. Nature of the assay: Luciferase/luciferin-expressing antifolate-resistant parasites were used to infect a culture of HepG2 cells that were pre-incubated with compounds. Infected hepatocytes emit light due to the luciferase reaction. Assay results are presented as the percent inhibition of light emission compared to control. […]. Format: functional. As to conditions: sporozoite; for IC90: read-out: LUCIFERASE INFECTION ASSAY - IC90.

[1] abbreviates: read-out: LUCIFERASE INFECTION ASSAY - IC50.

Consider `O=C(NC1CC1)c1csc(C(O)c2cccc(Cl)c2)n1` (stereo not given), for which the IC90 was > 10 µM. In addition, the IC50 under setting [1] stood at 3.36 µM.
`CN(c1ccccc1)c1nnc(C(O)c2ccc3ccccc3c2)s1` (stereo not given): the IC90 was > 10 µM. For the same molecule, under “PBLUC_HILL_SLOPE 0.974, PBLUC_R_SQUARED 0.604, read-out: LUCIFERASE INFECTION ASSAY - IC50”, the IC50 was 3.52 µM.
For the molecule `CCC(C)(C)c1ccc(Oc2ccc(NC(=O)c3ccc(OC(F)F)c(OC)c3)cc2)cc1`, the IC90 was > 10 µM. Moreover, where the note is “HEPG2TOX_HILL_SLOPE 5.1, HEPG2TOX_R_SQUARED 0.781, PBLUC_HILL_SLOPE 1.15, PBLUC_R_SQUARED 0.697, read-out: LUCIFERASE INFECTION ASSAY - IC50”, the IC50 was 2.6 µM.
As to `CCc1ccc2nc(NC(=O)CN(C)C(=O)c3ccco3)sc2c1`, the IC90 is > 10 µM. The IC50 under setting [1] is > 10 µM.
On to `CCC(C)NC(=O)c1c(NC(=O)c2ccc(Cl)cc2Cl)nc2ccc(C)cn12` (stereo not given), for which the IC90 is 0.967 µM. Where the note is “FFLUC_HILL_SLOPE 13.5, FFLUC_R_SQUARED 0.613, HEPG2TOX_HILL_SLOPE 1.25, HEPG2TOX_R_SQUARED 0.963, PBLUC_HILL_SLOPE 11.1, PBLUC_R_SQUARED 0.736, read-out: LUCIFERASE INFECTION ASSAY - IC50”, the IC50 was 0.793 µM.
`CN1C(=O)Cc2cc(C3=NNC(=Nc4ccccc4F)SC3)ccc21`: the IC90 is > 10 µM. Also, under setting [1], the IC50 was > 10 µM.
With `CC(C)c1cc(C(=O)OCCCn2c(=O)[nH]c3ccccc32)c2cnn(C(C)C)c2n1`, the IC90 was > 10 µM. Moreover, the IC50 under setting [1] was > 10 µM.
Regarding `Cc1cc(=O)n2nc(-c3ccccc3)cc2n1CC(=O)Nc1cc(Cl)ccc1N1CCCCC1`, the IC90 was 4.37 µM. Also, the IC50 under setting [1] was found to be 3.43 µM.
On to `CCCNc1nccn2c(-c3ccc(C(=O)NC4CC4)cc3)cnc12`, for which the IC90 was 7.31 µM. In addition, for the setting “HEPG2TOX_HILL_SLOPE 2.37, HEPG2TOX_R_SQUARED 0.851, PBLUC_HILL_SLOPE 7.04, PBLUC_R_SQUARED 0.366, read-out: LUCIFERASE INFECTION ASSAY - IC50”, the IC50 is 5.35 µM.
`O=C(OCC(=O)N1CCN(c2ccccc2)CC1)c1cccnc1Nc1cccc(C(F)(F)F)c1`: the IC90 is > 10 µM. Besides, the IC50 under setting [1] was > 10 µM.
Take `OCc1ccc(-c2cnc3cnc(-c4cnn(Cc5ccccc5)c4)cn23)cc1`: the IC90 is > 8.65 µM. Moreover, under setting [1], the IC50 was > 8.65 µM.
On to `CCN(CC)Cc1nc(N2CCN(Cc3c(C)nc4ccc(C)cn34)CC2)c2c(C)c(C)sc2n1`, for which the IC90 is > 10 µM. For the same molecule, the IC50 (PBLUC_HILL_SLOPE 1.28, PBLUC_R_SQUARED 0.354, read-out: LUCIFERASE INFECTION ASSAY - IC50) was found to be 5.6 µM.
In the case of `COc1cccc(-c2nc3ccc(NC(=O)Nc4cccc(C(C)=O)c4)cn3n2)c1`, the concentration for an effect of 90% (IC90) was > 10 µM. In addition, under setting [1], the IC50 is > 10 µM.
As for `C=S(=O)(NS(=O)(=O)c1ccc(-c2cc(C(F)(F)F)n(C)n2)s1)c1ccc(Cl)cc1` (stereo not given), the IC90 is > 6.82 µM. The 50% inhibitory concentration (IC50) under setting [1] was > 6.82 µM.
Consider `CC(=O)Nc1cccc(-c2ccc3ncc(-c4ccc5c(c4)OCO5)n3n2)c1`, for which the IC90 worked out at 3.94 µM. Also, where the note is “HEPG2TOX_HILL_SLOPE 2.37, HEPG2TOX_R_SQUARED 0.964, PBLUC_HILL_SLOPE 13.4, PBLUC_R_SQUARED 0.492, read-out: LUCIFERASE INFECTION ASSAY - IC50”, the IC50 was 3.34 µM.
`COCc1c(C(=O)Nc2nnc(C3CCCCC3)s2)oc2ccccc12`: the IC90 is > 10 µM. Further, the IC50 under setting [1] was > 10 µM.
Consider `O=C(Nc1ccc(OC(F)(F)F)cc1)Nc1ccc2nc(-c3ccc(F)c(Cl)c3)nn2c1`, for which the IC90 is > 10 µM. For the setting “PBLUC_HILL_SLOPE 3.06, PBLUC_R_SQUARED 0.207, read-out: LUCIFERASE INFECTION ASSAY - IC50”, the IC50 was 7.2 µM.
Turning to `O=C(Cc1cc(Cl)c2c(c1)OCCO2)NC(c1ccccc1)c1cccs1` (stereo not given), the concentration for an effect of 90% (IC90) is > 10 µM. Besides, the IC50 under setting [1] was > 10 µM.
In the case of `O=C(OC1(C(F)(F)F)C(=O)Nc2c1ccc1ccccc21)c1cccs1` (stereo not given), the IC90 was > 10 µM. Further, the IC50 (FFLUC_HILL_SLOPE 2.8, FFLUC_R_SQUARED 0.511, PBLUC_HILL_SLOPE 11.1, PBLUC_R_SQUARED 0.378, read-out: LUCIFERASE INFECTION ASSAY - IC50) is 9.81 µM.
Regarding `O=C(CCCNC(=O)c1ccsc1)Nc1ccc(OC(F)(F)F)cc1`, the IC90 was > 10 µM. In addition, under setting [1], the IC50 is > 10 µM.
As to `CC(C)c1ccc(C(=O)CSc2nc(N)cc(N)n2)c(C(C)C)c1`, the IC90 was > 10 µM. The IC50 (PBLUC_HILL_SLOPE 15.6, PBLUC_R_SQUARED 0.415, read-out: LUCIFERASE INFECTION ASSAY - IC50) worked out at 9.92 µM.
With `O=S(=O)(c1ccc(Cl)c(NC(=S)N/N=C/c2ccc(O)cc2O)c1)N1CCOCC1`, the IC90 is 8.73 µM. Moreover, the IC50 (HEPG2TOX_HILL_SLOPE 2.35, HEPG2TOX_R_SQUARED 0.922, PBLUC_HILL_SLOPE 5.37, PBLUC_R_SQUARED 0.597, read-out: LUCIFERASE INFECTION ASSAY - IC50) was found to be 5.8 µM.
With `CCCNC(=O)c1c(NC(=O)c2ccc(F)cc2F)nc2ccccn12`, the IC90 came to 8.71 µM. The IC50 (HEPG2TOX_HILL_SLOPE 7.34, HEPG2TOX_R_SQUARED 0.716, PBLUC_HILL_SLOPE 2.53, PBLUC_R_SQUARED 0.731, read-out: LUCIFERASE INFECTION ASSAY - IC50) stood at 3.66 µM.
For the molecule `Cn1nc(-c2ccc(-c3ccnc(SCC(=O)c4ccccc4)n3)s2)cc1C(F)(F)F`, the IC90 was > 7.17 µM. For the same molecule, the IC50 (FFLUC_HILL_SLOPE 0.544, FFLUC_R_SQUARED 0.175, read-out: LUCIFERASE INFECTION ASSAY - IC50) was > 7.17 µM.
On to `Clc1ccccc1-c1nc2ccnc(NCCc3ccccn3)c2[nH]1`, for which the IC90 is > 10 µM. In addition, under “HEPG2TOX_HILL_SLOPE 2.25, HEPG2TOX_R_SQUARED 0.756, PBLUC_HILL_SLOPE 1.33, PBLUC_R_SQUARED 0.656, read-out: LUCIFERASE INFECTION ASSAY - IC50”, the 50% inhibitory concentration (IC50) worked out at 5.37 µM.
Turning to `CC(C)NC(=O)c1c(NC(=O)c2ccc(Cl)cc2Cl)nc2ccccn12`, the IC90 was 3.78 µM. Moreover, where the note is “FFLUC_HILL_SLOPE 0.259, FFLUC_R_SQUARED 0.0893, HEPG2TOX_HILL_SLOPE 15, HEPG2TOX_R_SQUARED 0.814, PBLUC_HILL_SLOPE 11.2, PBLUC_R_SQUARED 0.466, read-out: LUCIFERASE INFECTION ASSAY - IC50”, the IC50 was determined as 3.1 µM.
As to `O=C(c1cnc(Nc2cccc(C(F)(F)F)c2)[nH]1)c1ccccc1O`, the IC90 came to 7.03 µM. The IC50 (PBLUC_HILL_SLOPE 5.05, PBLUC_R_SQUARED 0.685, read-out: LUCIFERASE INFECTION ASSAY - IC50) worked out at 4.55 µM.
As to `CCn1ncc2c(C(=O)Nc3ccc(-c4cn5ccsc5n4)cc3)cc(-c3cccs3)nc21`, the IC90 is > 10 µM. The IC50 (PBLUC_HILL_SLOPE 2.78, PBLUC_R_SQUARED 0.317, read-out: LUCIFERASE INFECTION ASSAY - IC50) came out at 7.98 µM.
On to `Cc1csc(NC(=O)Nc2ccc(C(F)(F)F)cc2)c1Cl`, for which the IC90 was 4.43 µM. The IC50 (HEPG2TOX_HILL_SLOPE 12, HEPG2TOX_R_SQUARED 0.807, PBLUC_HILL_SLOPE 11.1, PBLUC_R_SQUARED 0.14, read-out: LUCIFERASE INFECTION ASSAY - IC50) amounted to 3.63 µM.
As to `CCOc1ccc(N(C)S(=O)(=O)c2ccc(C)c(C(=O)Nc3nc4ccccc4[nH]3)c2)cc1`, the IC90 came to 3.87 µM. In addition, the IC50 (PBLUC_HILL_SLOPE 2.47, PBLUC_R_SQUARED 0.24, read-out: LUCIFERASE INFECTION ASSAY - IC50) was found to be 1.59 µM.
With `Nc1nnc(SCC(=O)N(Cc2ccccc2)c2nc(-c3ccc(Cl)cc3)cs2)[nH]1`, the IC90 is > 10 µM. In addition, the IC50 under setting [1] is > 10 µM.
Consider `N#C/C(=C\c1ccc(Cl)cc1Cl)c1ccc(O)cc1`, for which the IC90 is > 11.4 µM. The IC50 (HEPG2TOX_HILL_SLOPE 4.92, HEPG2TOX_R_SQUARED 0.97, PBLUC_HILL_SLOPE 12.5, PBLUC_R_SQUARED 0.376, read-out: LUCIFERASE INFECTION ASSAY - IC50) is 10.5 µM.
As for `CCc1ccccc1OCC(=O)Nc1cc(Cl)ccc1N1CCN(C)CC1`, the IC90 is > 10 µM. In addition, the IC50 (FFLUC_HILL_SLOPE 16.4, FFLUC_R_SQUARED 0.269, read-out: LUCIFERASE INFECTION ASSAY - IC50) is > 10 µM.
On to `O=C(CN1CCN(Cc2ccc(-n3cccn3)cc2)CC1)Nc1ccc(OC(F)(F)F)cc1`, for which the IC90 is > 10 µM. Also, under setting [1], the IC50 was > 10 µM.
With `CCc1noc(C)c1C(=O)OCc1csc(N(C(C)=O)c2ccccc2)n1`, the IC90 is > 10 µM. Further, the IC50 under setting [1] was > 10 µM.
For `CCOc1cc2c(cc1/C=C/C(=O)c1ccc(C)o1)OC(C)C2` (stereo not given), the IC90 was > 10 µM. Further, the IC50 (PBLUC_HILL_SLOPE 2.56, PBLUC_R_SQUARED 0.238, read-out: LUCIFERASE INFECTION ASSAY - IC50) is 9.29 µM.
As for `COCC(C)n1c(C)cc(C(=O)CSc2ccc(NC(C)=O)cc2)c1C` (stereo not given), the 90% effect concentration (IC90) is > 10 µM. Further, the IC50 (PBLUC_HILL_SLOPE 0.698, PBLUC_R_SQUARED 0.74, read-out: LUCIFERASE INFECTION ASSAY - IC50) was 0.948 µM.
Consider `CC(C)N(C(=O)COn1nnc2ccc(S(=O)(=O)N(C)C)cc21)C(C)C`, for which the IC90 is > 10 µM. The IC50 under setting [1] is > 10 µM.
Regarding `Cc1cc(C)n2nc(C(=O)OCC(=O)N(C)Cc3ccsc3)nc2n1`, the IC90 is > 10 µM. In addition, under setting [1], the IC50 is > 10 µM.
Take `COc1c(Cl)cc(Br)c(OC)c1C(=O)NC(=O)Nc1cc(C(F)(F)F)cc(C(F)(F)F)c1`: the IC90 came out at 2.27 µM. Besides, the IC50 (FFLUC_HILL_SLOPE 14.8, FFLUC_R_SQUARED 0.569, HEPG2TOX_HILL_SLOPE 7.93, HEPG2TOX_R_SQUARED 0.303, PBLUC_HILL_SLOPE 13, PBLUC_R_SQUARED 0.4, read-out: LUCIFERASE INFECTION ASSAY - IC50) came to 1.92 µM.

For orientation: IC50 means the concentration at which inhibition is half-maximal. By IC90 is commonly meant the point of the concentration-response curve where the effect stands at 90%.
